Where two headings read alike, the source gives them in different places.
Legend:
Enkephalinase = target: T1, Enkephalinase (Rattus norvegicus, UniProt P07861); assay: Enkephalinase inhibition, fluorometric assay with dansyl-D-AlaGly(p-nitro)PheGly substrate; type: biochemical; settings: 50 mM HEPES pH 7.4, 25° C.; for Ki: enzyme partially purified from rat kidney, 12 μM substrate
T1 construct: Enkephalinase is partially purified from rat kidney; from tissue; host or cells: rat kidney, microvilli fraction (Triton X-100 extract or proteolytic treatment, then Mono Q anion exchange)
T1 sequence (P07861 1-750): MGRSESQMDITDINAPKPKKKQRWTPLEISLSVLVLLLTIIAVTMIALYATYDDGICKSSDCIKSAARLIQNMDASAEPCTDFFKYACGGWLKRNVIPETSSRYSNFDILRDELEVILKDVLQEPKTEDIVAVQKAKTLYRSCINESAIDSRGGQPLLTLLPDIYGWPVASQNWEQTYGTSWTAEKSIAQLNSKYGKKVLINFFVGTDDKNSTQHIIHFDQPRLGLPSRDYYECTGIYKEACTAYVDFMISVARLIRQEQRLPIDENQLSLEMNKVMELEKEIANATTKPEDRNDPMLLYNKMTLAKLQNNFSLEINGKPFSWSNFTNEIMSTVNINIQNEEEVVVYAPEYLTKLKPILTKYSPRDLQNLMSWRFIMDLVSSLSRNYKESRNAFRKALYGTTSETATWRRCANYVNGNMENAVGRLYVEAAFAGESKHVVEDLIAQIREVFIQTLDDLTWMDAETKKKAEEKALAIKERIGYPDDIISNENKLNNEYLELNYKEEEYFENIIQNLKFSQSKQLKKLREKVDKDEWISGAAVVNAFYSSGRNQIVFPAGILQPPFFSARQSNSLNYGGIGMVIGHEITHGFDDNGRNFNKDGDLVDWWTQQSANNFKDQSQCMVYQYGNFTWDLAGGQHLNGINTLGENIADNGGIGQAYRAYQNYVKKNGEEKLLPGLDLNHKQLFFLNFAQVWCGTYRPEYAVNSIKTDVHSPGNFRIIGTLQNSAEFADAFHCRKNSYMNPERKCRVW
Description: Enkephalinase is partially purified from rat kidney. The enzyme is extracted from the microvilli fraction by using Triton X-100 according to the method of Malfroy and Schwartz [J. Biol. Chem. 259, 14365-14370 (1984)] or by using a proteolytic treatment according to the method of Almenoff and Orlowski [Biochem. 22, 590-599 (1983)]. The enzyme is further purified by anion exchange chromatography (Mono QTM column, Pharmacia) using a Pharmacia FPLC system. The enzyme activity may be measured by the fluorometric methods of Florentin et al. [Anal. Biochem. 141, 62-69 (1984)] or of Almenoff and Orlowski [J. Neurochemistry 42, 151-157 (1984)]. […] The substrate (and inhibitor) is added from a concentrated stock solution in DMSO (up to […] DMSO final volume). The enzyme in a small volume (approximately 0.1 μg of FPLC purified protein) is added to initiate the reaction and the rate of fluorecense increase is recorded continuously using a fluorometer (excitation at 339 nm, emission at 562 nm).

[1] = system: specific binding sites in various tissues including kidney, adrenal, aorta, and vascular smooth muscle; settings: Needleman, Hypertension 7, 469 (1985), cited from earlier work

Compound | Ki (Enkephalinase) | other results
O=C(N[C@H]1CC[C@@H](C(=O)O)CC1)C1(CS)CCc2ccccc2C1 (relative stereo) [100,552, 4-[[[1,2,3,4-Tetrahydro-2-(mercarptomethyl)-2-naphthalenyl]carbonyl]amino]- cis-cyclohexanecarboxylic acid] | 0.6 nM | 
O=C(O)CCNC(=O)C1(CS)CCc2ccccc2C1 (stereo not drawn) [100,185, N-[[1,2,3,4-Tetrahydro-2-(mercarptomethyl)-2-naphthalenyl]carbonyl]-β-alanine] | ≤ 0.2 nM | 
O=C(O)CNC(=O)C1(CS)CCc2ccccc2C1 (centres unmarked) [100,250, N-[[1,2,3,4-Tetrahydro-2-(mercarptomethyl)-2-naphthalenyl]carbonyl]-glycine] | 0.4 nM | 
CC(C)[C@H](NC(=O)C1(CS)CCc2ccccc2C1)C(=O)O (stereo partly drawn) [101,782, N-[[1,2,3,4-Tetrahydro-2-(mercarptomethyl)-2-naphthalenyl]carbonyl]-L-valine] | 2 nM | 
C[C@H](NC(=O)C1(CS)CCc2ccccc2C1)C(=O)O (stereo partly drawn) [101,890, N-[[1,2,3,4-Tetrahydro-2-(mercarptomethyl)-2-naphthalenyl]carbonyl]-L-alanine] | 0.3 nM | 
ANP: family of naturally-occurring peptides which are involved in the homeostatic regulation of blood pressure, as well as sodium and water levels |  | Kd ([1]; affinities ranging from about, read-out: affinity (lower end of range)): ≥ 0.05 nM; Kd ([1]; affinities ranging to about, read-out: affinity (upper end of range)): ≤ 500 nM
dansyl-D-AlaGly(p-nitro)PheGly [reference compound] |  | Km (Enkephalinase; substrate of the assay): 40 µM

Reference: patent publication US5252601A, “2-mercaptomethylene-tetrahydronaphthalene and indane-2-carboxamide derivatives as enkephalinase inhibitors” (Merrell Dow Pharmaceuticals Inc., priority 1992, dated 1993)
